Experimental data taken from US6943025B2, “Method for identifying genes involved in cell proliferation” (Children's Medical Center Corporation, priority 2001, dated 2005).

Assays:
zebrafish embryos = details: literature reports; cited from earlier work
Wild-type fish = details: zebrafish, in vivo
[1] = tested on: zebrafish mutant strains and wild-type; assay: Carcinogenesis assay in mutant strains (carcinogen induced tumorigenesis, Table II); details: 21 day-old fry
[2] = SQW 61, 5.0 ppm DMBA 24 hours, three months post-treatment
[3] = SQW 213, 5.0 ppm DMBA 24 hours, three months post-treatment
[4] = SQW 226, 5.0 ppm DMBA 24 hours, three months post-treatment
[5] = SQW 280, 5.0 ppm DMBA 24 hours, three months post-treatment
[6] = WT, 5.0 ppm DMBA 24 hours, 6 months post-treatment

CC[C@@]1(O)C(=O)OCc2c1cc1n(c2=O)Cc2cc3ccccc3nc2-1 [Camptothecin]
effect on zebrafish embryos (checkpoint, apoptosis) (zebrafish embryos): produces DNA strand breaks, resulting in subsequent apoptosis

Cc1c2ccccc2c(C)c2c1ccc1ccccc12 [DMBA, 7,12 dimethylbenzanthracene]
fish that developed tumors (Wild-type fish; wild-type): 10.4% | fish that developed tumors / fish treated (Wild-type fish; wild-type): 9/86 | tumor seen in tissue sections (histology) (Wild-type fish): medulloblastoma | tumor types produced (Wild-type fish): more brain and liver tumors | # tumors [1, 2]: 24 | % tumors [1, 2]: 18% | # tumors [1, 3]: 2 | % tumors [1, 3]: 7% | # tumors [1, 4]: 4 | % tumors [1, 4]: 20% | # tumors [1, 5]: 6 | % tumors [1, 5]: 12% | # tumors [1, 6]: 2 | % tumors [1, 6]: 5%

C[C@@]1(CO)[C@H](O)CC[C@@]2(C)[C@H]1CC[C@H]1C[C@@H]3C[C@@]12CC[C@]3(O)CO [aphidicolin]
effect on zebrafish embryos (checkpoint, apoptosis) (zebrafish embryos): cause apoptosis

NC(=O)NO [hydoxyurea]
effect on zebrafish embryos (checkpoint, apoptosis) (zebrafish embryos): cause apoptosis

COC(=O)Nc1nc2cc(C(=O)c3cccs3)ccc2[nH]1 [nocodozolc]
effect on zebrafish embryos (checkpoint, apoptosis) (zebrafish embryos): destabilized microtubules and the activation of a mitotic checkpoint
